Article PMC3055678 (ACS Medicinal Chemistry Letters, 2011)

What was measured:
panel of 402 kinases = experiment: Ambit KINOMEscan ATP-site competition binding, panel of 402 kinases; details: concentration of 10 μM, Erk5 = BMK1
BMK1 [1] = molecular target: T1, BMK1 (Homo sapiens, UniProt Q13164); experiment: Ambit KINOMEscan single-point score; type: binding; details: concentration of 10 μM
BMK1 [2] = molecular target: T1, BMK1; experiment: EGF-stimulated BMK1 autophosphorylation in HeLa cells; details: concentration of 1 μM

T1 sequence (Q13164 whole entry): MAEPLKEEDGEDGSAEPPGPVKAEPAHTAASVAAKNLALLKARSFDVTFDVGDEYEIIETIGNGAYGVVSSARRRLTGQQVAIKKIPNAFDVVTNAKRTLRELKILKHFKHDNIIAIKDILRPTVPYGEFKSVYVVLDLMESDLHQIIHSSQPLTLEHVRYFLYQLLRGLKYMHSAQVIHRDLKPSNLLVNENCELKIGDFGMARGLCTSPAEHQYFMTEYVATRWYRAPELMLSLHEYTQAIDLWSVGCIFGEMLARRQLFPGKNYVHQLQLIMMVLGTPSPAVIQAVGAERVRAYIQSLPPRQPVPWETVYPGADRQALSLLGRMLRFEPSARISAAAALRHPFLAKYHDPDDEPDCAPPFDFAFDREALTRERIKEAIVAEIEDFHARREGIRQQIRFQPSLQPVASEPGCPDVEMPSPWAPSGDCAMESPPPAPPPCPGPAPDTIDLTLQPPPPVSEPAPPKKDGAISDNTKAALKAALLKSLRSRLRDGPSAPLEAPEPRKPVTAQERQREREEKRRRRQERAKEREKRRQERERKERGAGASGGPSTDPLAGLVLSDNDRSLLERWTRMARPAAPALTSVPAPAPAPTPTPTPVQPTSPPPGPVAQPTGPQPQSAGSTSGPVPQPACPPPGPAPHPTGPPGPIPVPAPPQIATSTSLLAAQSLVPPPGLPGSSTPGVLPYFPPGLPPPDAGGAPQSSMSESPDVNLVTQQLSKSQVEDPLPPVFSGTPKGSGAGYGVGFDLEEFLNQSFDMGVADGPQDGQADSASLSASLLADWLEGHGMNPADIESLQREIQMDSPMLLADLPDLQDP

Row | ambit score against BMK1 (BMK1 [1]) | inhibition of BMK1 autophosphorylation (BMK1 [2]) | Structure (SMILES) | kinase hits (kinases that exhibited greater than 95% displacement from an immobilized ligand) (panel of 402 kinases)
1 | 0.5 |  | COc1cc(N2CCN(C)CC2)ccc1Nc1ncc2c(n1)N(C)c1ccccc1C(=O)N2 [compound 10] | ABL1(F317I), BRK, C-FMS, DCAMKL1, DCAMKL2, ERK5, FRK, GAK, KIT(L576P), MYLK4, TNK1, TNK2
2 | 0 | significantly inhibited | COc1cc(N2CCN(C)CC2)ccc1Nc1ncc2c(n1)N(C)c1ccccc1C(=O)N2C [compound 11] | DCAMKL1, DCAMKL2, ERK5, FRK, MNK2, PKD1, PKD2, RSK4∼b, TAO1, TAO3, TNK1, TNK2, ULK1, ULK2
